# Measurements as given in US9649324B2, “Use of tylvalosin as antiviral agent” (ECO ANIMAL HEALTH LIMITED, priority 2006, dated 2017).
# Assays:
# [1] = tested on: HRT-18 cells; test: Intracellular accumulation of macrolides in HRT-18 cells; assay type: in vitro ADME, human; details: HRT-18 cells, 10 μg/mL antibiotic
# Method: HRT-18 cells, in 6 cm tissue cultures dishes, were incubated in the presence of 0.5, 5 or 50 μg/mL tylvalosin. After 4 h, two dishes for each tylvalosin concentration and two dishes without antibiotic were removed from the incubator. A sample of medium (about 1 mL) was removed, placed in a labelled Eppendorf tube and stored at −20° C. The rest of the medium was then removed. Each of the cell monolayers was washed twice in PBS, using approximately 5 mL for each wash. The plunger from a 2 mL plastic syringe was used to gently scrape off the cells. PBS (500 μL) was added to the dish and the cells gently removed into this medium, using a micropipette. The sample was then placed in an Eppendorf tube and centrifuged at 8000×g in a bench centrifuge (Biofuge pico, Heraeus instruments) for 13 sec. An obvious cell pellet formed. The supernatant was removed using a micropipette and the cell material was stored at −20° C. in a labelled Eppendorf tube. After approximately 24 h the remaining tissue culture dishes were removed from the incubator and treated as described above for the 4 h samples. All the samples, including the 4 h samples, were then stored at −70° C.
# HRT-18 cells were prepared as described above and used at passage 42. Stock solutions of antibiotics (either tylvalosin, tylosin or tilmicosin) were diluted in growth media and 10 μg/mL each antibiotic was added to the confluent cell monolayers. The cells were incubated at 37° C. in a 5% CO2 atmosphere for either 4 h or 24 h. The media and cells were harvested and tested for antibiotic, as described above.
# (§1) All the supernatant and cell samples were transported frozen (at approximately −20° C.) to York Bioanalytical Solutions (York, England) for analysis. Briefly, 0.25 g of buffer (RPMI medium containing 10% FCS) was weighed into a polypropylene tube. A 50 μL volume of the appropriate working solution was added to the quality control (QC) samples. Methanol (50 μL) was added to each blank sample used for preparation of calibration standards, recovery samples and reagent blanks. A 2.5 mL volume of 0.1 M phosphate buffer was added to each sample, vortex mixed for approximately 1 min and then centrifuged at 3220×g for 10 min at 4° C.
# (§2) For the liquid-liquid clean-up phase, an aliquot (100 μL) of the supernatant was transferred to a polypropylene tube. The pH was adjusted to pH 8-8.5 by the addition of 0.1 M NaOH, and vortex mixed. Ethyl acetate (5 mL) was added and after capping, the whole mixture was shaken for 10 min and then centrifuged at 3220×g for 10 min at 4° C.
# (§3) Ammonium acetate (20 mM; pH native)—formic acid, 1000:3, v/v (100 μL) was added to each well in a 2 mL polypropylene collection plate. An aliquot of the ethyl acetate mixture (100 μL) was transferred to the polypropylene collection plate and evaporated under nitrogen (40° C.) until the ethyl acetate was fully evaporated whilst the ammonium acetate remained. Methanol (100 μL) was added to each well, excluding the calibration standards.
# (§4) To each well containing a calibration standard, 100 μL of the appropriate calibration working solution was added. Samples were then vortex mixed for at least 10 min and submitted for liquid chromatography with tandem mass spectrometric analysis. The method stated was applicable to the samples of media (and the calibration standards and quality control samples).
# (§5) For the cells, the sample tubes were weighed, and 100 μL of acetonitrile was added. The samples were vortex mixed for 10 sec, then centrifuged at 10285×g at 4° C. for 5 min. The sample was transferred to a polypropylene tube. The original sample tube was washed with 0.1 M phosphate buffer (1 mL). This was transferred to the polypropylene tube. A second wash of 1 mL was made, then a final wash of 0.5 mL. The polypropylene tube was now at the same stage as the end of the liquid extraction, but with the cells present rather than media. This was then taken through the sample preparation as described above. […]
# [2] = tested on: VR2332 (US strain of PRRSV); test: VR2332 (US strain of PRRSV) entry assay in MA104 cells (Example 10); details: 4 h pretreatment, moi 10, overnight
# [3] = tested on: chicken white blood cells; test: Intracellular accumulation in chicken white blood cells; assay type: in vitro ADME; details: chicken white blood cells, 10 μg/mL
# Method: (§6) Pig blood was collected in Heparin-coated BD vacutainers (6). 20 mL of blood and 30 mL of phosphate buffered saline (PBS) were mixed in a 50 mL conical centrifuge tube. This was repeated in order to obtain 3 such tubes. The mixtures were centrifuged for 10 min at 2050×g. The white blood cells, together with some red blood cells below, were harvested into a 50 mL conical centrifuge tube. PBS was added to about 50 mL. A 63% solution of Percoll was made as follows: 6.3 mL Percoll (Sigma), 1.0 mL 1.5 M NaCl, 2.7 mL H2O. 10 mL of 63% Percoll was added to each of two 50 mL conical centrifuge tubes. 25 mL of the resuspended white blood cells were carefully layered on top of the each of the Percoll solutions. A sharp interface was produced. The material was centrifuged at 3000×g for 10 min. […] The white blood cells were harvested in PBS (50 mL) and centrifuged at 500×g for 10 min. The cell pellet was resuspended in medium (Glasgow minimum essential medium containing penicillin and streptomycin). A viable cell count was made using trypan blue. The same method used for isolation of pig WBCs was used for the chicken WBCs, with the exception that heparin (100 I.U./mL) was prepared and mixed with an equal volume of chicken whole blood.
# All tubes were placed on a rotary mixing machine, at 37° C. Supernatant and cell samples were harvested at the times described in the figure legends. Duplicate samples were used for each antibiotic for each time point.
# as §1, §2, §3, §4, §5
# [4] = tested on: Caco-2 cells; test: Intracellular accumulation and trans-epithelial transport in polarised Caco-2 cells; assay type: in vitro ADME, human; details: Caco-2, 10 μg/mL, apical administration
# Method: Caco-2 cells were seeded at a density of 0.8×10^6 cells per well of a Transwell Clear filter 6 well plate, 0.4 μm pore size. The cells were incubated with 2 mL medium in both apical and basolateral chambers. This medium was replaced every 2 days for 10-14 days. Transepithelial resistance was measured using Millicell ERS apparatus (Millipore) at day 7, 10 and/or 14 in order to identify when the cells had become polarised. Readings of >1000 Ω were indicative of polarised cells. […]
# as §1, §2, §3, §4
# (§7) For the cells, the sample tubes were weighed, and 100 μL of acetonitrile was added. The samples were vortex mixed for 10 sec, then centrifuged at 10285×g at 4° C. for 5 min. The sample was transferred to a polypropylene tube. The original sample tube was washed with 0.1 M phosphate buffer (1 mL). This was transferred to the polypropylene tube. A second wash of 1 mL was made, then a final wash of 0.5 mL. The polypropylene tube was now at the same stage as the end of the liquid extraction, but with the cells present rather than media. This was then taken through the sample preparation as described above. The original sample tubes were allowed to dry (i.e. any remaining solvent evaporated off) and were then reweighed to determine the weight of cells in the sample, to allow the concentration per gram of cells to be determined.
# [5] = tested on: cell culture
# [6] = tested on: pig white blood cells; test: Intracellular accumulation in pig white blood cells; assay type: in vitro ADME
# Method: as §6
# Cells were incubated with 10 mg/mL of each antibiotic. All tubes were placed on a rotary mixing machine, at 37° C. Supernatant and cell samples were harvested at the times described in the figure legends. Duplicate samples were used for each antibiotic for each time point.
# as §1, §2, §3, §4, §5
# [7] = tested on: LLC-PK1 cells; test: Intracellular accumulation in pig kidney epithelial cells; assay type: in vitro ADME; details: LLC-PK1, 10 μg/mL
# Method: LLC-PKI cells in 6 cm^2 plastic tissue culture dishes were incubated with 10 μg/mL of the different macrolides. Cells and medium were harvested as described above at 30, 75 and 120 min.
# as §1, §2, §3, §4, §7
# [8] = tested on: PRRSV; details: has been shown; cited from earlier work
compound,measurement,setting,value
"CC[C@H]1OC(=O)C[C@@H](O)[C@H](C)[C@@H](O[C@@H]2O[C@H](C)[C@@H](O)[C@H](N(C)C)[C@H]2O)[C@@H](CCN2C[C@H](C)C[C@H](C)C2)C[C@@H](C)C(=O)/C=C/C(C)=C/[C@@H]1CO[C@@H]1O[C@H](C)[C@@H](O)[C@@H](OC)[C@H]1OC (single isomer, unassigned) [tilmicosin, reference compound]",average intracellular concentration,[1]; 4 h,7.24 μg/mg cells
same,intracellular:extracellular ratio,[1]; 4 h,1.32 fold
same,average intracellular concentration,[1]; 24 h,32.45 μg/mg cells
same,intracellular:extracellular ratio,[1]; 24 h,4.64 fold
same,inhibition of VR2332 infection,[2],partial inhibition
same,average intracellular concentration,[3]; 15 min,37.1 μg/mg cells
same,intracellular concentration,[3]; 60 min,71.3 μg/mg cells
same,average intracellular concentration,[4]; 120 min,8.6 μg/mg cells
same,average intracellular concentration,[4]; 240 min,16.05 μg/mg cells
same,basolateral chamber content as average % of the apical chamber value,[4]; 240 min,1.08%
same,intracellular:extracellular ratio (fold concentration),[4]; 240 min,2.5 fold
same,toxicity in cell culture assays of antiviral potency,[5],much more toxic than tylvalosin
same,average intracellular concentration,[6]; 10 min,31.25 μg/mg cells
same,average intracellular:extracellular ratio (IC:EC),[6]; 10 min,4.33
same,average intracellular:extracellular ratio (IC:EC),"[6]; 10 min, listed as Tilmicosin",4
same,intracellular concentration,[6]; 20 min,36 μg/mg cells
same,average intracellular concentration,[7]; 75 min,4.98 μg/mg cells
same,intracellular:extracellular ratio,[7]; 120 min,1.7
same,effect on PRRSV,[8],effective
